Measured values taken from PMC2821522 (Journal of Clinical Immunology, 2009).
Where two headings read alike, the source gives them in different places.

Experiments:
Assay type in all cases: cell-based, human
[1] = test system: PBMC (immune recognition, gamma interferon-secreting T cells)
[2] = test system: CD4+ T cells; test: Flow cytometry / intracellular cytokine staining, CD4+ T cells; settings: sarcoidosis subjects, in words, Fig. 1
[3] = test system: expanded sarcoidosis CD4+ T cell lines; antigen presented by Sweig cells (HLA DRB1*1101 and DRB3*0202)

For WTNTPTKWDNSFLEI [katG peptide 13], the “subjects recognizing the peptide” value [1] was “Seven of the eight”, the “subjects recognizing the peptide” value ([1]; PPD− control subjects) was “none” and the “CD4+ T cell response” value ([2]; listed as katG) was “CD4+ T cell recognition of katG was also detected”. The “CD4+ T cell response” value ([2]; listed as katG peptide) was “strong CD4+ T cells response”, the “immune response (CD4+ IFN-γ)” value [3] was “minimal response” and the “immune response (CD4+ IFN-γ)” value ([3]; katG-expanded line of Sarcoidosis 6, with Sweig cells, Fig. 4, listed as katG peptides) was “strong CD4+ responses”.
